Source: ChEMBL document CHEMBL5444388, “Affinity Phenotypic Cellular Literature for EUbOPEN Chemogenomic Library” (2024)
Blank lines part the entries; values can stand above or below the compound they belong to.

Assays:
Activated CDC42 kinase 1 = Activated CDC42 kinase 1 (Homo sapiens, UniProt Q07912); assay type: functional, cell-based, T-cell
[1] = biological target: T1, MAP kinase-activated protein kinase 2 (Homo sapiens, UniProt P49137); assay type: functional, cell-based, Monocyte
[2] = biological target: T1, MAP kinase-activated protein kinase 2; assay type: functional, cell-based, Monocyte; remark: listed apart in the source
[3] = biological target: T1, MAP kinase-activated protein kinase 2; assay type: functional, cell-based, Monocyte; remark: listed apart in the source
[4] = biological target: T1, MAP kinase-activated protein kinase 2; assay type: functional, cell-based, Monocyte; remark: listed apart in the source
[5] = biological target: T2, MAP kinase-activated protein kinase 3 (Homo sapiens, UniProt Q16644); assay type: functional, cell-based, Monocyte
[6] = biological target: T2, MAP kinase-activated protein kinase 3; assay type: functional, cell-based, Monocyte; remark: listed apart in the source
[7] = biological target: T2, MAP kinase-activated protein kinase 3; assay type: functional, cell-based, Monocyte; remark: listed apart in the source
[8] = biological target: T3, MAP kinase-activated protein kinase 5 (Homo sapiens, UniProt Q8IW41); assay type: functional, cell-based, Monocyte
T3 sequence (Q8IW41 whole entry): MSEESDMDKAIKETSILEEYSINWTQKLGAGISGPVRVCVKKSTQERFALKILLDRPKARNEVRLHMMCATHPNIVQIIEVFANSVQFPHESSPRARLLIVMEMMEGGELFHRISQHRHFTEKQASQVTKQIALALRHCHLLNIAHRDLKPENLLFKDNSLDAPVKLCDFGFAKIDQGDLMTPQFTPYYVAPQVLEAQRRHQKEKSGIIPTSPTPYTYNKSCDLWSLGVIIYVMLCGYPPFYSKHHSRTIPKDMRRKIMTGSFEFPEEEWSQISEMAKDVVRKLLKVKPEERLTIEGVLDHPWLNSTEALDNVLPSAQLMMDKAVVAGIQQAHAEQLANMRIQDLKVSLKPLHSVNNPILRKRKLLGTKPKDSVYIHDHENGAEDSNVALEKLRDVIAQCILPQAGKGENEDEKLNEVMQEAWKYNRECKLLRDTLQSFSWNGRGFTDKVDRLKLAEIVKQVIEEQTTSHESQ

[9] = biological target: T3, MAP kinase-activated protein kinase 5; assay type: functional, cell-based, Monocyte; remark: listed apart in the source
[10] = biological target: T3, MAP kinase-activated protein kinase 5; assay type: functional, cell-based, Monocyte; remark: listed apart in the source
[11] = biological target: Protein arginine N-methyltransferase 7 (Homo sapiens, UniProt Q9NVM4); assay: Affinity Phenotypic Cellular interaction: (HSP70 monomethylation in C2C12 cells) EUB0000236b PRMT7; assay type: functional, cell-based; design: mode of action Negative control for SGC3027, recommended concentration 1 uM
[12] = biological target: Serine/threonine-protein kinase pim-2 (Homo sapiens) (UniProt Q9P1W9); assay: Affinity Phenotypic Cellular interaction: (Antiproliferative activity against AML cell lines (EOL-1, KG-1a, Kasumi-3, MV4-11, MOLM-16)) EUB0001547a PIM2; assay type: functional; design: recommended concentration 100 nM; settings: Affinity Phenotypic Cellular Source Knowledge https://ashpublications.org/blood/article/123/6/905/32601/AZD1208-a-potent-and-selective-pan-Pim-kinase
[13] = biological target: Serine/threonine-protein kinase pim-1 (Homo sapiens) (UniProt P11309); settings: Affinity Phenotypic Cellular Source Knowledge https://ashpublications.org/blood/article/123/6/905/32601/AZD1208-a-potent-and-selective-pan-Pim-kinase
[14] = biological target: Serine/threonine-protein kinase pim-3 (Homo sapiens) (UniProt Q86V86); settings: Affinity Phenotypic Cellular Source Knowledge https://ashpublications.org/blood/article/123/6/905/32601/AZD1208-a-potent-and-selective-pan-Pim-kinase
[15] = biological target: 5'-AMP-activated protein kinase catalytic subunit alpha-1 (Homo sapiens, UniProt Q13131); assay: Affinity Phenotypic Cellular interaction: (Cellular mechanistic pACC assay using IMR-32 neuroblastoma cells) EUB0000311b PRKAA1; assay type: functional, cell-based; design: mode of action Inhibitor, recommended concentration 100 nM
[16] = biological target: Cyclin-dependent kinase 8 (Homo sapiens, UniProt P49336); assay: Affinity Phenotypic Cellular interaction: (Inhibition of pSTAT S727 in NK-92 cells) EUB0000163b CDK8; assay type: functional, cell-based; design: mode of action Negative control for BI-1347, recommended concentration 100 nM
Chain of Cyclin-dependent kinase 8 (P49336 whole entry): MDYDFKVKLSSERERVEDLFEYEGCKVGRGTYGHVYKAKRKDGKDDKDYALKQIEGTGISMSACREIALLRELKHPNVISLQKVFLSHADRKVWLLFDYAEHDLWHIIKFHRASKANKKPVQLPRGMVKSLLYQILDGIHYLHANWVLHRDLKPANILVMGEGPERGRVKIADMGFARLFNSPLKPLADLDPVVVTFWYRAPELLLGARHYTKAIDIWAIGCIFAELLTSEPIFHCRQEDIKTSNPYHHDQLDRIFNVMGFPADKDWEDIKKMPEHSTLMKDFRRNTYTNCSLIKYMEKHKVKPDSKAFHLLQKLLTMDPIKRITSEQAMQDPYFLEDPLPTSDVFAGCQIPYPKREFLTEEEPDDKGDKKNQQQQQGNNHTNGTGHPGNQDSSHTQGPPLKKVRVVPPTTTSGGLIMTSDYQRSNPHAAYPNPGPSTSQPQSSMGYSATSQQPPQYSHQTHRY

T1 sequence (P49137 whole entry): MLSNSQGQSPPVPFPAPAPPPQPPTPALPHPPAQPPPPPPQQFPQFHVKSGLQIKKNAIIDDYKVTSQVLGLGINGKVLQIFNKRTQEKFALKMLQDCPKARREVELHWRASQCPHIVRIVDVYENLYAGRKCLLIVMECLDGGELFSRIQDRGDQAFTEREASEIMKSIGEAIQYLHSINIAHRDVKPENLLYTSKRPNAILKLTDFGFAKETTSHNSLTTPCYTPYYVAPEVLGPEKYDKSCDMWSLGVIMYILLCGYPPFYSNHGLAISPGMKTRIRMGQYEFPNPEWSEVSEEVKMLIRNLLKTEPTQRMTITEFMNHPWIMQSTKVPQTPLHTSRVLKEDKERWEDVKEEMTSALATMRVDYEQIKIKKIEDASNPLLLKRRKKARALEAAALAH
T2 sequence (Q16644 whole entry): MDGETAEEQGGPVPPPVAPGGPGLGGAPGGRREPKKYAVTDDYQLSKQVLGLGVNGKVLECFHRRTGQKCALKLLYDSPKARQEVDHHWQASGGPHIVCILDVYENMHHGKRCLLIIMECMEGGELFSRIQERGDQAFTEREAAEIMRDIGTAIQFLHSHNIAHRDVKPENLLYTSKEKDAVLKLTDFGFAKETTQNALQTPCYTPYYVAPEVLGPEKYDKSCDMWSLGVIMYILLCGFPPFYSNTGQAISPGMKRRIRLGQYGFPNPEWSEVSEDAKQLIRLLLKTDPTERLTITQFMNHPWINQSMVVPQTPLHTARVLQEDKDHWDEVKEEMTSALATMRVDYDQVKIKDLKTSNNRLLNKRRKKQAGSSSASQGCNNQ
Chain of Serine/threonine-protein kinase pim-1 (Homo sapiens) (P11309 whole entry, looked up): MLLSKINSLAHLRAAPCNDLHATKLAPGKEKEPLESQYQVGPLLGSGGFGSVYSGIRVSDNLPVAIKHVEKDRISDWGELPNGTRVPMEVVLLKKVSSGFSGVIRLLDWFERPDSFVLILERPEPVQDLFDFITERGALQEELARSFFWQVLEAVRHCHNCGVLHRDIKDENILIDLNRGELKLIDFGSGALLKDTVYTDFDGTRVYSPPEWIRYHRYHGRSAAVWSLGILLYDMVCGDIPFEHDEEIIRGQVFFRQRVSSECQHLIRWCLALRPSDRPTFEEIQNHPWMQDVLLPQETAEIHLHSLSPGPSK
Chain of Serine/threonine-protein kinase pim-2 (Homo sapiens) (Q9P1W9 whole entry, looked up): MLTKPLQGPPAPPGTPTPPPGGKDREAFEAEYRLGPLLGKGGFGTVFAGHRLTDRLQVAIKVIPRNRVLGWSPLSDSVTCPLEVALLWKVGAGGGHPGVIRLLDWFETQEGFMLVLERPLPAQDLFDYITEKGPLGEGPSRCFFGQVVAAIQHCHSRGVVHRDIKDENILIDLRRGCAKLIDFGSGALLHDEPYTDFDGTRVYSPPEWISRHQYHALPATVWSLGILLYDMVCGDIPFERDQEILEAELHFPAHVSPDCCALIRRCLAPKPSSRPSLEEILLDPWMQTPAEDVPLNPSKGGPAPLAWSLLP
Chain of Activated CDC42 kinase 1 (Q07912 whole entry): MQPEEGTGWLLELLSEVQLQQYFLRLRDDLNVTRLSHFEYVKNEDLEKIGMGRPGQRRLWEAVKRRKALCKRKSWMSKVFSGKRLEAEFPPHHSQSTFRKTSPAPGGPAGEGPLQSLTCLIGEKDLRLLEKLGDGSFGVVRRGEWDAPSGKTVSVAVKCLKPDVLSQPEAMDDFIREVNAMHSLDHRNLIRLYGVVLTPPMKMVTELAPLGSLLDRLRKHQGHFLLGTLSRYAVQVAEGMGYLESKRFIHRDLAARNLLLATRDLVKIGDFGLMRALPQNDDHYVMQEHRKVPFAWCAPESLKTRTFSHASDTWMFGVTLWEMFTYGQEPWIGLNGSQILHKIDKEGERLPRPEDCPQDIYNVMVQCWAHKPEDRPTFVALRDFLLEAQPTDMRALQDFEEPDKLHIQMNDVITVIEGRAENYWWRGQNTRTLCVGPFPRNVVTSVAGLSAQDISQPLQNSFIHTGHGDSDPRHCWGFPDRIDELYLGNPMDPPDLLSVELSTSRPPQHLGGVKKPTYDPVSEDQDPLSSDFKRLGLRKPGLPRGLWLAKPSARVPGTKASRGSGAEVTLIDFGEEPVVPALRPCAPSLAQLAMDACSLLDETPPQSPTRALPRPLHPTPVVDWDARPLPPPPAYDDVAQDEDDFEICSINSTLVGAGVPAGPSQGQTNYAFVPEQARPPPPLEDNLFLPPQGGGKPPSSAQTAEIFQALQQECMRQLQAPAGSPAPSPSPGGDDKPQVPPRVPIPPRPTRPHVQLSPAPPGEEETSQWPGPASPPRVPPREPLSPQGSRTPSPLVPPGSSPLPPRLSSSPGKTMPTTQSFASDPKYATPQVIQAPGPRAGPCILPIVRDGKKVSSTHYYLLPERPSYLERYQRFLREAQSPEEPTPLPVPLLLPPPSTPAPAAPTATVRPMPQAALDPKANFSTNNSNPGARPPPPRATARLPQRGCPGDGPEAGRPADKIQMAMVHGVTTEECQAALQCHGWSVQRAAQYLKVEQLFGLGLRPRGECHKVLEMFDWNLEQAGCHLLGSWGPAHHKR
Chain of Protein arginine N-methyltransferase 7 (Q9NVM4 whole entry): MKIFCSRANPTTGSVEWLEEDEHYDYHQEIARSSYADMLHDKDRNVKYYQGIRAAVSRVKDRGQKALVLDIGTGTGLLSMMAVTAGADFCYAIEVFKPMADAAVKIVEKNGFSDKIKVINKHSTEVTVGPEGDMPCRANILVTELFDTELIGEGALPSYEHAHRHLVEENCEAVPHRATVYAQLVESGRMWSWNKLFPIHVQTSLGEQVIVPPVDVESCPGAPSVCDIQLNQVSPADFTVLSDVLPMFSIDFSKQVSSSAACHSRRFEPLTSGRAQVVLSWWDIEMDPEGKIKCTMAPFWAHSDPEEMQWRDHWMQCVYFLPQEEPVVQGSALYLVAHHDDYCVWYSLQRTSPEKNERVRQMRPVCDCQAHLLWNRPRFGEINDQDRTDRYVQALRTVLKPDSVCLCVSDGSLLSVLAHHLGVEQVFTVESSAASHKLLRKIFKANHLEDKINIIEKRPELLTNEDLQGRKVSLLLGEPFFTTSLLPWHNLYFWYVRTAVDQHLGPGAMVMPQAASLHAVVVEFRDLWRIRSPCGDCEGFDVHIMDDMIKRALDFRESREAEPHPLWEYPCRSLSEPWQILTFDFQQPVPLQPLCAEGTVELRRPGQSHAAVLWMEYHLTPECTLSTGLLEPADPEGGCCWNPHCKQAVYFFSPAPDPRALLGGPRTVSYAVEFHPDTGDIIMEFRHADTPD
Chain of 5'-AMP-activated protein kinase catalytic subunit alpha-1 (Q13131 whole entry): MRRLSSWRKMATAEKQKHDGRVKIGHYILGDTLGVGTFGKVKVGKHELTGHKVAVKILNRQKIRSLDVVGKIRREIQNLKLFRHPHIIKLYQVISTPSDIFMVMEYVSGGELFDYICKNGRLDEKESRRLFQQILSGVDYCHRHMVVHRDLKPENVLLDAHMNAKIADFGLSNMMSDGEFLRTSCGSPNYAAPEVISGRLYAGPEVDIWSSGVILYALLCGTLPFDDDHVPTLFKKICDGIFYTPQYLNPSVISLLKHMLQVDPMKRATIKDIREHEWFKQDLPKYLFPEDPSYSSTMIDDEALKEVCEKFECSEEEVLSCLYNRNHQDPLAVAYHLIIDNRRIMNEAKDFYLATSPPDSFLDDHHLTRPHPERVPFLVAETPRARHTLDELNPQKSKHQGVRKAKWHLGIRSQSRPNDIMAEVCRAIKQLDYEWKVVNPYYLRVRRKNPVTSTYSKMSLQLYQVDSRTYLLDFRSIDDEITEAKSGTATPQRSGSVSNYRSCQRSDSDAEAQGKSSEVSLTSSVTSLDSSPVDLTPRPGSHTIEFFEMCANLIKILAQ

SMILES: Cc1ccc(-c2ccc3c(ccc4sc5c(c43)NC[C@@H](C)NC5=O)n2)cn1
IC50 [1]: 0.13 µM
IC50 [2]: 2.78 µM
IC50 [3]: 1.26 µM
IC50 [4]: 2.09 µM
IC50 [5]: 2.78 µM
IC50 [6]: 1.26 µM
IC50 [7]: 2.09 µM
IC50 [8]: 2.78 µM
IC50 [9]: 1.26 µM
IC50 [10]: 2.09 µM

SMILES: CC1=C(C)C(=O)C(C(C)(C)CC(=O)N(CCCCSC[C@H]2O[C@@H](n3cnc4c(N)ncnc43)[C@@H]3OC(C)(C)O[C@@H]32)Cc2cccc(-c3ccc(Cl)cc3)c2)=C(C)C1=O
IC50 [11]: > 40 µM

SMILES: CCc1ccccc1C(=O)Nc1n[nH]c2c(C)c(F)c(C3C(C#N)=C(C)N(C)C(C)=C3C#N)cc12 [BAY-3827]
EC50 [15]: 0.15 µM

SMILES: CN(C)C(=O)Cn1cc(-c2ccc(-c3nnc4ccccn34)cc2)cn1
IC50 [16]: > 10 µM

The remaining lines, values ahead:

IC50 (Activated CDC42 kinase 1): 2.41 µM
SMILES: c1ccc(-c2oc3ncnc(NC[C@@H]4CCCO4)c3c2-c2ccccc2)cc1

GI50 [12]: < 1 µM
GI50 [13]: < 1 µM
GI50 [14]: < 1 µM
SMILES: N[C@@H]1CCCN(c2c(/C=C3\SC(=O)NC3=O)cccc2-c2ccccc2)C1
